According to PMC11999280, “Design and screening of novel endosomal escape compounds that enhance functional delivery of oligonucleotides in vitro” (Molecular Therapy. Nucleic Acids, 2025):

Assays:
Type in all cases: cell-based
[1] = system: mCherry-GAL9 expressing HepG2 cells; experiment: GAL9 recruitment assay, HepG2; conditions: calculated mean from >3 independent exp.
How it was run: (§1)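 Endosomal remodeling was inferred from recruitment of stably expressed mCherry-GAL9 into intracellular structures, quantified by confocal image analysis after compound dose-response treatment, fixation and Hoechst nuclear staining.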

[2] = system: mCherry-GAL9 expressing HEK293 cells; experiment: GAL9 recruitment assay, HEK293; conditions: calculated mean from >3 independent exp.
How it was run: as §1

HeLa cells = experiment: Cellular uptake of AF568-labeled SSO, flow cytometry; conditions: flow cytometry 0, 2, 4, 6 and 8h after EEE4-treatment
Description: Next, we set out to determine the mode of action of EEE4 on endosomal escape. We have previously shown with EEE2 that acidification of endosomes is critical to the activity of the EEE. […] Based on previous findings using EEE2, we hypothesized that simultaneous SSO + EEE4 uptake is needed to induce efficient splice-switching. To evaluate this hypothesis, we performed a parallel experiment using EEE4 dose response with either SSO co-treatment or 24-h SSO pre-incubation step. Luciferase readout was performed at five different time points after EEE4 addition, and splice-switching was observed under both experimental conditions. […] Finally, to ascertain that EEE4 indeed acts by enhancing the endosomal release of ASOs and not merely by increasing cellular uptake, a cellular uptake experiment was performed using AF568-labeled SSO.
Figure S1. Schematic representation of the splice-correction strategy used in pLUC/705 reporter. Luc705 reporters carry a pLuc/705 splice-switching luciferase gene, interrupted by a mutated b-globin intron. […]
Figure S2. […] HeLa ells were either SSO + EEE4 cotreated or 24h-SSO pre-incubated and then EEE4 treated, followed by readout using flow cytometry at 0, 2, 4, 6 and 8h after EEE4-treatment. Significant was calculated, for single variable using Mann-Whitney U test (*P <0.05, **P <0.005 and ***P […]

[3] = system: cell lines carrying an mCherry-GAL9-reporter; experiment: GAL9 puncta formation upon EEE dose escalation (images); conditions: dose escalation 0.31 to 10 μM
Description: We further studied endosomal leakage by quantifying GAL9 recruitment upon EEE dose escalation, from 0.31 to 10 μM. For this purpose, we used cell lines carrying an mCherry-GAL9-reporter, where endosomal rupture could be quantified by measuring GAL9 clustering as a puncta event representative of endosomal remodeling.
Experiments assessing GAL9 localization as an indicator for endosomal remodeling were performed as previously described[15] using 8× stablemCherry-GAL9 expressing cell lines, SHSY5Y, U2OS, 16HBE, NCI-H358, HuH7, HepG2, HEK293, and HeLa. For mCherry-GAL9 recruitment, 3,000 or 6,500 cells/well (depending upon cell line) were seeded into 384-well CellCarrier Ultra plates 24 h prior to treatment (PerkinElmer, catalog no. 6007558). An Echo 655T acoustic dispenser (Labcyte) was used for EEE dose-response preparation by transferring to the cell plate. At assay endpoints, cells were PBS washed, 4% paraformaldehyde fixed at room temperature […] (VWR, catalog no. 9713.1000), and nuclei stained with PBS +1 μg/mL Hoechst 33342 (Thermo Fisher Scientific, catalog no. H21492).
Imaging was performed using a spinning-disk confocal microscope (Yokogawa: CV8000) with a ×20w objective (numerical aperture 1.0). Cells and mCherry-GAL9 structure identification and quantification were done using Columbus image-analysis software (PerkinElmer version 2.9.0). […]

[4] = system: mCherry-GAL9 expressing HeLa cells; experiment: GAL9 recruitment assay, HeLa; conditions: calculated mean from >3 independent exp.
How it was run: as §1

[5] = system: mCherry-GAL9 expressing SHSY5Y cells; experiment: GAL9 recruitment assay, SHSY5Y; conditions: calculated mean from >3 independent exp.
How it was run: as §1

[6] = system: mCherry-GAL9 expressing U2OS cells; experiment: GAL9 recruitment assay, U2OS; conditions: calculated mean from >3 independent exp.
How it was run: as §1

SMILES: COc1nn(C2CCNCC2)cc1Nc1ncc(F)c(-n2ccc3c(C#N)cccc32)n1 [EEE4]
- Gal9 response compared to reference ([1]; EEE 0.31 µM): 0.010
- Gal9 response compared to reference ([1]; EEE 0.62 µM): 0.014
- Gal9 response compared to reference ([1]; EEE 1.25 µM): 0.030
- Gal9 response compared to reference ([1]; EEE 2.5 µM): 0.410
- Gal9 response compared to reference ([1]; EEE 5 µM): 0.444
- Gal9 response compared to reference ([1]; EEE 10 µM): 0.480
- Gal9 response compared to reference ([2]; EEE 0.31 µM): 0.027
- Gal9 response compared to reference ([2]; EEE 0.62 µM): 0.243
- Gal9 response compared to reference ([2]; EEE 1.25 µM): 0.648
- Gal9 response compared to reference ([2]; EEE 2.5 µM): 0.678
- Gal9 response compared to reference ([2]; EEE 5 µM): 0.396
- Gal9 response compared to reference ([2]; EEE 10 µM): 0.222
- Cellular uptake of AF568-labeled SSO in the presence of EEE (HeLa cells): did not observe any enhanced cellular uptake
- EEE concentration with clear GAL9 puncta formation [3]: ≥ 1.25 µM
- Gal9 response compared to reference ([4]; EEE 0.31 µM): 0.005
- Gal9 response compared to reference ([4]; EEE 0.62 µM): 0.011
- Gal9 response compared to reference ([4]; EEE 1.25 µM): 0.246
- Gal9 response compared to reference ([4]; EEE 2.5 µM): 0.481
- Gal9 response compared to reference ([4]; EEE 5 µM): 0.168
- Gal9 response compared to reference ([4]; EEE 10 µM): 0.058
- Gal9 response compared to reference ([5]; EEE 0.31 µM): 0.016
- Gal9 response compared to reference ([5]; EEE 0.62 µM): 0.315
- Gal9 response compared to reference ([5]; EEE 1.25 µM): 0.678
- Gal9 response compared to reference ([5]; EEE 2.5 µM): 0.499
- Gal9 response compared to reference ([5]; EEE 5 µM): 0.389
- Gal9 response compared to reference ([5]; EEE 10 µM): 0.026
- Gal9 response compared to reference ([6]; EEE 0.31 µM): 0.014
- Gal9 response compared to reference ([6]; EEE 0.62 µM): 0.019
- Gal9 response compared to reference ([6]; EEE 1.25 µM): 0.083
- Gal9 response compared to reference ([6]; EEE 2.5 µM): 0.332
- Gal9 response compared to reference ([6]; EEE 5 µM): 0.572
- Gal9 response compared to reference ([6]; EEE 10 µM): 0.561
